Laboratory results from ChEMBL document CHEMBL1154277, “Discovery of N-substituted pyridinones as potent and selective inhibitors of p38 kinase” (Bioorg Med Chem Lett, 2009).

Legend:
[1] = target: Casein kinase II subunit alpha (Homo sapiens) (UniProt P68400); assay: Inhibition of CK2alpha1 at 10 uM
[2] = target: Dual specificity protein kinase CLK1 (Homo sapiens) (UniProt P49759); assay: Inhibition of CLK1 at 10 uM
[3] = target: Serine/threonine-protein kinase 3 (Homo sapiens) (UniProt Q13188); assay: Inhibition of MST2 at 10 uM
[4] = target: Mitogen-activated protein kinase 1 (Homo sapiens) (UniProt P28482); assay: Inhibition of ERK2 at 10 uM
[5] = target: Vascular endothelial growth factor receptor 2 (Homo sapiens) (UniProt P35968); assay: Inhibition of KDR at 10 uM
[6] = target: SRSF protein kinase 1 (Homo sapiens) (UniProt Q96SB4); assay: Inhibition of SRPK1 at 10 uM
[7] = target: Rho-associated protein kinase 1 (Homo sapiens) (UniProt Q13464); assay: Inhibition of ROCK1 at 10 uM
[8] = target: G protein-coupled receptor kinase 6 (Homo sapiens) (UniProt P43250); assay: Inhibition of GRK6 at 10 uM
[9] = system: Epidermal growth factor receptor (Homo sapiens), P00533 [T790M]; assay: Inhibition of EGFR T790M (mutant) at 10 uM; type: protein assay
[10] = system: Tyrosine-protein kinase ABL1 (Homo sapiens), P00519 [G250E]; assay: Inhibition of ABL1 G250E (mutant) at 10 uM
[11] = target: AMP-activated protein kinase, AMPK (Homo sapiens) (UniProt P54646+O43741+P54619+Q9UGJ0+Q9Y478+Q13131+Q9UGI9); assay: Inhibition of AMPK alpha-2/beta-1/gamma-1 at 10 uM; type: protein-complex assay
[12] = target: Receptor tyrosine-protein kinase erbB-2 (Homo sapiens) (UniProt P04626); assay: Inhibition of ERBB2 at 10 uM
[13] = target: Serine/threonine-protein kinase D1 (Homo sapiens) (UniProt Q15139); assay: Inhibition of PKCmu at 10 uM
[14] = target: Dual specificity tyrosine-phosphorylation-regulated kinase 1A (Homo sapiens) (UniProt Q13627); assay: Inhibition of DYRK1A at 10 uM
[15] = target: Serine/threonine-protein kinase MARK2 (Homo sapiens) (UniProt Q7KZI7); assay: Inhibition of MARK2 at 10 uM
[16] = target: Non-receptor tyrosine-protein kinase TYK2 (Homo sapiens) (UniProt P29597); assay: Inhibition of TYK2 at 10 uM
[17] = target: Serine/threonine-protein kinase PLK3 (Homo sapiens) (UniProt Q9H4B4); assay: Inhibition of PLK3 at 10 uM
[18] = target: Mitogen-activated protein kinase kinase kinase 8 (Homo sapiens) (UniProt P41279); assay: Inhibition of COT at 10 uM
[19] = target: Calcium/calmodulin-dependent protein kinase type II subunit beta (Homo sapiens) (UniProt Q13554); assay: Inhibition of CAMK2beta at 10 uM
[20] = target: Ephrin type-B receptor 2 (Homo sapiens) (UniProt P29323); assay: Inhibition of EPHB2 at 10 uM
[21] = target: cAMP-dependent protein kinase catalytic subunit PRKX (Homo sapiens) (UniProt P51817); assay: Inhibition of PRKX at 10 uM
[22] = target: Serine/threonine-protein kinase B-raf (Homo sapiens) (UniProt P15056); assay: Inhibition of B-Raf at 10 uM
[23] = target: SRSF protein kinase 3 (Homo sapiens) (UniProt Q9UPE1); assay: Inhibition of MSSK1 at 10 uM
[24] = target: Serine/threonine-protein kinase pim-1 (Homo sapiens) (UniProt P11309); assay: Inhibition of PIM1 at 10 uM
[25] = target: Protein kinase C beta type (Homo sapiens) (UniProt P05771); assay: Inhibition of PKCbeta1 at 10 uM
[26] = target: Tyrosine-protein kinase BTK (Homo sapiens) (UniProt Q06187); assay: Inhibition of BTK at 10 uM
[27] = system: Rattus norvegicus; assay: Antiinflammatory activity in Lewis rat strep cell wall model assessed as inhibition of chronic paw swelling at 60 mg/kg; type: functional
[28] = target: Proto-oncogene tyrosine-protein kinase Src (Homo sapiens) (UniProt P12931); assay: Inhibition of SRC at 10 uM
[29] = target: Platelet-derived growth factor receptor beta (Homo sapiens) (UniProt P09619); assay: Inhibition of PDGFRbeta at 10 uM
[30] = system: Leucine-rich repeat serine/threonine-protein kinase 2 (Homo sapiens), Q5S007 [G2019S]; assay: Inhibition of LRRK2 G2019S mutant at 10 uM
[31] = target: Casein kinase I isoform gamma-1 (Homo sapiens) (UniProt Q9HCP0); assay: Inhibition of CSNK1G1 at 10 uM
[32] = target: Focal adhesion kinase 1 (Homo sapiens) (UniProt Q05397); assay: Inhibition of FAK at 10 uM
[33] = target: Ephrin type-A receptor 3 (Homo sapiens) (UniProt P29320); assay: Inhibition of EPHA3 at 10 uM
[34] = target: Tyrosine-protein kinase Lck (Homo sapiens) (UniProt P06239); assay: Inhibition of LCK at 10 uM
[35] = target: Ephrin type-A receptor 2 (Homo sapiens) (UniProt P29317); assay: Inhibition of EPHA2 at 10 uM
[36] = target: Dual specificity tyrosine-phosphorylation-regulated kinase 3 (Homo sapiens) (UniProt O43781); assay: Inhibition of DYRK3 at 10 uM
[37] = target: Proto-oncogene tyrosine-protein kinase receptor Ret (Homo sapiens) (UniProt P07949); assay: Inhibition of RET at 10 uM
[38] = target: Mitogen-activated protein kinase 10 (Homo sapiens) (UniProt P53779); assay: Inhibition of JNK3 at 10 uM
[39] = target: Leucine-rich repeat serine/threonine-protein kinase 2 (Homo sapiens) (UniProt Q5S007); assay: Inhibition of LRRK2 at 10 uM
[40] = target: Aurora kinase A (Homo sapiens) (UniProt O14965); assay: Inhibition of Aurora A at 10 uM
[41] = target: RAC-gamma serine/threonine-protein kinase (Homo sapiens) (UniProt Q9Y243); assay: Inhibition of AKT3 at 10 uM
[42] = target: Tyrosine-protein kinase JAK1 (Homo sapiens) (UniProt P23458); assay: Inhibition of JAK1 at 10 uM
[43] = target: Casein kinase II subunit alpha' (Homo sapiens) (UniProt P19784); assay: Inhibition of CK2alpha2 at 10 uM
[44] = system: Platelet-derived growth factor receptor alpha (Homo sapiens), P16234 [D842V]; assay: Inhibition of PDGFRalpha D842V (mutant) at 10 uM
[45] = target: Serine/threonine-protein kinase Sgk2 (Homo sapiens) (UniProt Q9HBY8); assay: Inhibition of SGK2 at 10 uM
[46] = target: Ribosomal protein S6 kinase alpha-3 (Homo sapiens) (UniProt P51812); assay: Inhibition of RSK2 at 10 uM
[47] = Half life in po dosed Sprague-Dawley rat; type: ADME, organism-based; settings: in vivo

Sequence of Serine/threonine-protein kinase Sgk2 (Homo sapiens) (Q9HBY8 whole entry): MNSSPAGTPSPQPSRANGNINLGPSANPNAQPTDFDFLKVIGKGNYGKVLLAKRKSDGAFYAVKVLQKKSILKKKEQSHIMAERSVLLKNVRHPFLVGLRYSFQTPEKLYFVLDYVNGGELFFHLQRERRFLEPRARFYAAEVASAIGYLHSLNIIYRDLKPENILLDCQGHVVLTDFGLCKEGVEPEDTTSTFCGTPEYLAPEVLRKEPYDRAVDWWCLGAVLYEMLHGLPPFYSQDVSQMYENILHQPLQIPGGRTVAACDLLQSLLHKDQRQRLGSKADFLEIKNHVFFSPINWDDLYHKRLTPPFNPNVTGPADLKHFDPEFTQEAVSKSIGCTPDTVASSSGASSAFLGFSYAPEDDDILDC
Sequence of Proto-oncogene tyrosine-protein kinase receptor Ret (Homo sapiens) (P07949 whole entry): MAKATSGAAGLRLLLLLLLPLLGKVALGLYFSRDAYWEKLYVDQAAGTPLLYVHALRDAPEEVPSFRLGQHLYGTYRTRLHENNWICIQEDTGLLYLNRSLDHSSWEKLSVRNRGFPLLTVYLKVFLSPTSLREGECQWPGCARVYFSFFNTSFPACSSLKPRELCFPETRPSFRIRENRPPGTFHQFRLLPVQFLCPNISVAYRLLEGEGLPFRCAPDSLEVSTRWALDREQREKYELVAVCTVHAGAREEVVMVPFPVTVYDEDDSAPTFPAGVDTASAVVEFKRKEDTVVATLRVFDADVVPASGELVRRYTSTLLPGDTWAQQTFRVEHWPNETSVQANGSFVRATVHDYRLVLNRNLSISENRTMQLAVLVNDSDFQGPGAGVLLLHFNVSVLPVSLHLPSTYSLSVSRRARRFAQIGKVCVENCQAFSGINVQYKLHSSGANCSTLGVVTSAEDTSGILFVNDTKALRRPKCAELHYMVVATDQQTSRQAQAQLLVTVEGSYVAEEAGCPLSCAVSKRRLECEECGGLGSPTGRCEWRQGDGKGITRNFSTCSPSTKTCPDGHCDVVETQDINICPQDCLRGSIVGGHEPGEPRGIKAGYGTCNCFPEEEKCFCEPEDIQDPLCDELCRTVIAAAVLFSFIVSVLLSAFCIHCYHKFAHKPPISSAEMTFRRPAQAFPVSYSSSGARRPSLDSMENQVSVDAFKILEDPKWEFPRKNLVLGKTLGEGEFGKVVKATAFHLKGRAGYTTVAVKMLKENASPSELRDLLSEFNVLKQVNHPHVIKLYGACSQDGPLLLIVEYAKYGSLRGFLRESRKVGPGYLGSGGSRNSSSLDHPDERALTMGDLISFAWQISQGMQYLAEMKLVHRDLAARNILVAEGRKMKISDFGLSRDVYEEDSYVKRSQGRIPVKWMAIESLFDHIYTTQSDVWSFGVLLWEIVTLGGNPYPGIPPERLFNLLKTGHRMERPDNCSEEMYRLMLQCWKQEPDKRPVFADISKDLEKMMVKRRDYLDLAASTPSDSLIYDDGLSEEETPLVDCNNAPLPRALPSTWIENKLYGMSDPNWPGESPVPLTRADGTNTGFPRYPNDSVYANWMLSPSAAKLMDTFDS
Sequence of Mitogen-activated protein kinase 10 (Homo sapiens) (P53779 whole entry): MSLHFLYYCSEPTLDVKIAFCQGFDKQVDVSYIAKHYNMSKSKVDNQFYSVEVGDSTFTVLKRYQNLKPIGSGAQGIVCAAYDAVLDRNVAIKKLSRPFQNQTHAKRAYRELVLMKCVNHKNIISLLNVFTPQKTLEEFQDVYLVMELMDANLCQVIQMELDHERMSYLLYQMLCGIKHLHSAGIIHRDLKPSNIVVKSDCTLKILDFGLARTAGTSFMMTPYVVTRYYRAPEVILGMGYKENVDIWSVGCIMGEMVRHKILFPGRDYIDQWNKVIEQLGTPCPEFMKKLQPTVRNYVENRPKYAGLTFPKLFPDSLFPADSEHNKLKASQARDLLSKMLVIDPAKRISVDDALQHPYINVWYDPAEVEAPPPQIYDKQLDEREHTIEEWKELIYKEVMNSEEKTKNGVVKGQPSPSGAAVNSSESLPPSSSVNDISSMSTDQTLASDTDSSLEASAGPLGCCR
Sequence of Receptor tyrosine-protein kinase erbB-2 (Homo sapiens) (P04626 whole entry): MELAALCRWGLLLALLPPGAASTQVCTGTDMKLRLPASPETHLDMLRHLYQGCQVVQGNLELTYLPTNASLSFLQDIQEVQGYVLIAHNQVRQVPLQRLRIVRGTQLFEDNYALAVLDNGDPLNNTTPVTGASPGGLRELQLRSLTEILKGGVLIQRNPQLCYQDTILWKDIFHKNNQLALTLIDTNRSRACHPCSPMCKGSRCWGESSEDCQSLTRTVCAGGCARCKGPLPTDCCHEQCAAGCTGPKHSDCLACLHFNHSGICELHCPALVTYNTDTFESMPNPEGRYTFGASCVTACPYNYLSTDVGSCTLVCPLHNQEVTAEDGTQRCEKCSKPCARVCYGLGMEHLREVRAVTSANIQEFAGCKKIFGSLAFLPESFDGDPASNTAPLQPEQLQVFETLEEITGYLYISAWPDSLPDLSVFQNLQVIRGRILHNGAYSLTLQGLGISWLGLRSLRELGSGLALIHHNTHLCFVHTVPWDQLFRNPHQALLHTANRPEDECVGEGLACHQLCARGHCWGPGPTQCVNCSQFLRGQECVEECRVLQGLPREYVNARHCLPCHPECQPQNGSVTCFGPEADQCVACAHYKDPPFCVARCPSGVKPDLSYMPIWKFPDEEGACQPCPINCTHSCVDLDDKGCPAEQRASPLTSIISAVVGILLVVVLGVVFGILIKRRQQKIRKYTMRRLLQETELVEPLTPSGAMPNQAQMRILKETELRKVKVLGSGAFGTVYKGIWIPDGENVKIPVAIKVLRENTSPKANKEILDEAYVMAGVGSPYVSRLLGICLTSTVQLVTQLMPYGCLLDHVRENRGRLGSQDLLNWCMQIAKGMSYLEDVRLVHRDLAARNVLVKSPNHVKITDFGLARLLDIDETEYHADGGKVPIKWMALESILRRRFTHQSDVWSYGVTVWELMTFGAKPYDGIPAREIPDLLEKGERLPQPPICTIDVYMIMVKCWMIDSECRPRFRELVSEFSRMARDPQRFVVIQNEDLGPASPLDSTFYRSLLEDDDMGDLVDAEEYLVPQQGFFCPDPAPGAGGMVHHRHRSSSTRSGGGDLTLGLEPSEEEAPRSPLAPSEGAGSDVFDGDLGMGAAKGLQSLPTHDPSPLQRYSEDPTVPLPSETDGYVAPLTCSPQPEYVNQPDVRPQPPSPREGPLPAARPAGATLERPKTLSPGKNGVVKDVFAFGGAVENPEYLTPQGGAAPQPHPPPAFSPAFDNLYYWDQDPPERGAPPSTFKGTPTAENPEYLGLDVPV
Sequence of Tyrosine-protein kinase JAK1 (Homo sapiens) (P23458 whole entry): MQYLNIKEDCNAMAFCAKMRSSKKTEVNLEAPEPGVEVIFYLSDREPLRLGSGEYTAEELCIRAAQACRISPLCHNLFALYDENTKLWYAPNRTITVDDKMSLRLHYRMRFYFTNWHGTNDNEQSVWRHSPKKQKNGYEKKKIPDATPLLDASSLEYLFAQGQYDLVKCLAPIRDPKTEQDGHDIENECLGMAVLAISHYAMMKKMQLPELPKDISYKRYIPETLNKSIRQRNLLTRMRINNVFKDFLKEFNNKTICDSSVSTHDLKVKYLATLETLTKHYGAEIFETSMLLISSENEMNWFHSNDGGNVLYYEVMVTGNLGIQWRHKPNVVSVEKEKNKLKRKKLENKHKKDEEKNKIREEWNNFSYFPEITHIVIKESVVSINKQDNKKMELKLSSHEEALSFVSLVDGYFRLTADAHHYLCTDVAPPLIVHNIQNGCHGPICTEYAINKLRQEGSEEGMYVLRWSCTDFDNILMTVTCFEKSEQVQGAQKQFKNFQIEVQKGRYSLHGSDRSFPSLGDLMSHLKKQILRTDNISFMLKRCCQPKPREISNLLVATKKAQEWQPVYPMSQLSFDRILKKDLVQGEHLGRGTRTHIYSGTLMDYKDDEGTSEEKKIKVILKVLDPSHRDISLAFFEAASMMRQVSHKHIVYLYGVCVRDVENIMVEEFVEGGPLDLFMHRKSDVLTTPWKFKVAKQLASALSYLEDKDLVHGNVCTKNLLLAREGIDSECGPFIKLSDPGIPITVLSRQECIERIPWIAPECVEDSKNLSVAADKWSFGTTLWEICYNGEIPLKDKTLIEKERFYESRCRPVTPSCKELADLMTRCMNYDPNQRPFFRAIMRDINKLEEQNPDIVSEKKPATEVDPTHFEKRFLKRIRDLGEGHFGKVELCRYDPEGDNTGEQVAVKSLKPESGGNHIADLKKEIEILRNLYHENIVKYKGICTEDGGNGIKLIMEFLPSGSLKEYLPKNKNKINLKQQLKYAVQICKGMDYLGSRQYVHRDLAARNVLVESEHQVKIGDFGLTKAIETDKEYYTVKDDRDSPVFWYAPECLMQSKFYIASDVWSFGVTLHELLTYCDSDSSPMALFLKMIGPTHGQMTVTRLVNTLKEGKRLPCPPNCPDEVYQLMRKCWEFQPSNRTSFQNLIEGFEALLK
Sequence of Aurora kinase A (Homo sapiens) (O14965 whole entry): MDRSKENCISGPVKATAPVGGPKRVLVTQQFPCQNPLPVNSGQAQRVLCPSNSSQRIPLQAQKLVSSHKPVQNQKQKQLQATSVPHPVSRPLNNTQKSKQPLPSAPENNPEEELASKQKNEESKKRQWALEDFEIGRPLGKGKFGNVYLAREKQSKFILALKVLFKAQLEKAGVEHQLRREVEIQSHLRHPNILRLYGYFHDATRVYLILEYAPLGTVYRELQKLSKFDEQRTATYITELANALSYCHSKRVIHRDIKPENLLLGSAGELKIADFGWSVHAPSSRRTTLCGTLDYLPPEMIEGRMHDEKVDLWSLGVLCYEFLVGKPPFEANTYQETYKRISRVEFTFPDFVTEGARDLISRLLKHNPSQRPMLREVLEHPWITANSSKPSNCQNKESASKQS
Sequence of Serine/threonine-protein kinase pim-1 (Homo sapiens) (P11309 whole entry, looked up): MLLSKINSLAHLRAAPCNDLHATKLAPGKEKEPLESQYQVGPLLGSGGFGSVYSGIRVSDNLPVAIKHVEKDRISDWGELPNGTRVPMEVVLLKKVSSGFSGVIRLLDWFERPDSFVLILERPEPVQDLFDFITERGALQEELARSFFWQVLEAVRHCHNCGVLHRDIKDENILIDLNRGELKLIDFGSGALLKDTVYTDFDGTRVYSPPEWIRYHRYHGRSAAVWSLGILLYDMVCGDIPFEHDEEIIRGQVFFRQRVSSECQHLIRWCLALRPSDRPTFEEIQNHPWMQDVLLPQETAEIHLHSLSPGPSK

In the case of `Cc1cc(OCc2ccc(F)cc2F)c(Br)c(=O)n1Cc1ccc(CN(C)C)cc1`, the inhibition [1] is reported as < 50%, the inhibition [2] is reported as < 50% and the inhibition [3] is reported as < 50%. The inhibition [4] was < 50%, the inhibition [5] was < 50% and the inhibition [6] was < 50%. For the same compound, the inhibition [7] was < 50%, the inhibition [8] was < 50% and the inhibition [9] was < 50%. For the same compound, the inhibition [10] was < 50%, the inhibition [11] was < 50% and the inhibition [12] was < 50%. The inhibition [13] was < 50%, the inhibition [14] was < 50% and the inhibition [15] was < 50%. For the same compound, the inhibition [16] was < 50%, the inhibition [17] was < 50% and the inhibition [18] was < 50%. The inhibition [19] was < 50%, the inhibition [20] was < 50% and the inhibition [21] was < 50%. The inhibition [22] was < 50%, the inhibition [23] was < 50% and the inhibition [24] was < 50%. The inhibition [25] was < 50%, the inhibition [26] was < 50% and the inhibition in vivo at 60 mg/kg [27] was 88%. For the same compound, the inhibition [28] was < 50%, the inhibition [29] was < 50% and the inhibition [30] was < 50%. For the same compound, the inhibition [31] was < 50%, the inhibition [32] was < 50% and the inhibition [33] was < 50%. For the same compound, the inhibition [34] was < 50%, the inhibition [35] was < 50% and the inhibition [36] was < 50%. For the same compound, the inhibition [37] was < 50%, the inhibition [38] was < 50% and the inhibition [39] was < 50%. The inhibition [40] was < 50%, the inhibition [41] was < 50% and the inhibition [42] was < 50%. For the same compound, the inhibition [43] was < 50%, the inhibition [44] was < 50% and the inhibition [45] was < 50%. The inhibition [46] was < 50% and the half-life [47] was 4.97 h.
